Experimental data taken from patent publication US7655632B2, “Pyrazole derivative, medicinal composition containing the same, medicinal use thereof, and intermediate for production thereof” (Kissei Pharmaceutical Co., Ltd., priority 2002, dated 2010).

Key:
diabetic rats = test: Assay for inhibitory effects on blood glucose level increase in rats (liquid meal tolerance test in diabetic rat model); assay type: in vivo; settings: test compound 1 mg/kg orally, liquid meal 17.25 kcal/kg, mean ± S.E.; for Plasma glucose concentration 0.5 h: 0.5 hour after drug administration; for Plasma glucose concentration 1 h: 1 hour after drug administration; for Plasma glucose concentration 0 h: pretreatment (0 h)
Procedure: Assay for Inhibitory Effects on Blood Glucose Level Increase in rats
1) Preparation of Diabetic Rat Model
Male wistar rats (Japan Charles River), aged 8 weeks old, were injected nicotinamide (230 mg/kg) intraperitoneally. Fifteen minutes after injection, they were injected streptozotocin (85 mg/kg) intravenously from tail vain under anesthesia with ether. After a week, rats were fasted overnight and then glucose tolerance test (2 g/kg) was done.
2) Liquid Meal Tolerance Test
After overnight fasted, the diabetic rats were orally administered a test compound (1 mg/kg), which was dissolved in distilled water, in the drug-treating group, or distilled water alone in a control group. Immediately after the compound administration, 17.25 kcal/kg of liquid meal (No. 038, Control diet, assorted with dextrin and maltose; Oriental Yeast Co., Ltd.) was loaded orally. The blood was collected from tail artery immediately before and after administration with the time course, and treated with heparin immediately. The blood was centrifuged, and the plasma was collected to quantify the plasma glucose concentration by glucose oxidase method. The values in the table are presented as the mean ±S.E.

human SGLT1 = biological target: T1, human SGLT1 (Homo sapiens, UniProt P13866); test: Assay for inhibitory effects on human SGLT1 activity (uptake of methyl-α-D-glucopyranoside in CS1-5-11D cells); assay type: cell-based; settings: CHO-K1 cells stably expressing human SGLT1 (CS1-5-11D); 1 mM α-MG uptake, 37° C., 1 hour
T1 construct: expressed in transfected cells
T1 sequence (P13866 1-664): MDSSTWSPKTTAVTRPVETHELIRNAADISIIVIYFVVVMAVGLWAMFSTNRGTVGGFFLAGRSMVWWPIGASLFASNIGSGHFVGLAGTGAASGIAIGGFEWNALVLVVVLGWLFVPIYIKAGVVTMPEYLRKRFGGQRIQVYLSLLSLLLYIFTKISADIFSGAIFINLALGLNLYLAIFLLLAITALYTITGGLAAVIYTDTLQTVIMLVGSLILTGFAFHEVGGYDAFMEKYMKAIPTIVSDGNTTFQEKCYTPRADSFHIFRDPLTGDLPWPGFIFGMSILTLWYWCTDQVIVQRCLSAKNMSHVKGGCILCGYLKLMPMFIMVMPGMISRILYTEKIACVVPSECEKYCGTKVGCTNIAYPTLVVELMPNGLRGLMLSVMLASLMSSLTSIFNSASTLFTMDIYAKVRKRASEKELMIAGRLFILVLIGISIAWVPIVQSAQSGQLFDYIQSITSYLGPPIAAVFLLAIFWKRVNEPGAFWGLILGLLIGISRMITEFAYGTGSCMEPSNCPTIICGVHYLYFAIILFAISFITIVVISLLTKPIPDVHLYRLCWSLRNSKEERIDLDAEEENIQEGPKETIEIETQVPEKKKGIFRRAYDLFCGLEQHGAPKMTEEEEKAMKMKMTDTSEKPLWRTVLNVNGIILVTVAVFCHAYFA
Procedure: Assay for Inhibitory Effects on Human SGLT1 Activity
1) Cloning and Construction of the Vector Expressing Human SGLT1
The cDNA library was prepared for PCR amplification by reverse transcription from total RNA deprived from human small intestine (Ori gene) using oligo-dT as a primer. Using this cDNA library as a template, the DNA fragment coding 1 to 2005 bp of human SGLT1 (ACCESSION: M24847), which was reported by Hediger et al., was amplified by PCR method and inserted into the multi-cloning site of pcDNA3.1(−) (Invitrogen). The DNA sequence inserted was perfectly matched to the previously reported sequence.
2) Establishment of Cell Line Stably Expressing Human SGLT1
The expression vector of human SGLT1 was digested by Sca I into a linear DNA. The linear DNA was transfected into CHO-K1 cells by means of lipofection (Effectene Transfection Reagent: QIAGEN). Neomycin resistant cell lines were selected by culture in the medium containing G418 (1 mg/mL, LIFE TECHNOLOGIES), and then the activity against the uptake of methyl-α-D-gluco-pyranoside was measured by the method described below. […] CS1-5-11D cells were cultured in the presence of G418 at 200 μg/mL.
3) Measurement of the Inhibitory Activity Against the Uptake of methyl-α-D-glucopyranoside (α-MG)
CS1-5-11D cells were seeded into a 96-well culture plate at a density of 3×10^4 cells/well and cultured for 2 days, and were used in the uptake assay. A mixture of non-labeled (Sigma) and ^14C-labeled α-MG (Amersham Pharmcia Biotec) was added to the uptake buffer (pH 7.4; containing 140 mM sodium chloride, 2 mM potassium chloride, 1 mM calcium chloride, 1 mM magnesium chloride, 10 mM 2-[4-(2-hydroxyethyl)-1-piperazinyl]ethane sulfonic acid, and 5 mM tris(hydroxymethyl)aminomethane) at the final concentration of 1 mM. A test compound was dissolved in dimethyl sulfoxide, and then appropriately diluted with distilled water. The test compound solution was added to the uptake buffer containing 1 mM α-MG, and designated as a measurement buffer. For the control group, the measurement buffer without any test compound was prepared. For measuring the basal uptake, a basal uptake measurement buffer which contains 140 mM chorine chloride instead of sodium chloride was prepared. After removing the culture medium of CS1-5-11D cells, 180 μL of the pre-treatment buffer (the basal uptake buffer without α-MG) was added to each well and incubated at 37° C. for 10 minutes. After repeating the same treatment, the pre-treatment buffer was removed. To each well was added 75 μL of the measurement buffer or the basal uptake buffer was added and incubated at 37° C. for 1 hour. After removing the measurement buffer, cells were washed twice with 180 μL per well of the washing buffer (the basal uptake buffer containing 10 mM non-labeled α-MG). The cells were solubilized by 75 μL per well of 0.2 mol/L sodium hydroxide. The cell lysates were transferred into PicoPlates (Packard), and then added 150 μL of MicroScint-40 (Packard) and mixed. Radioactivity was measured by means of micro-scintillation counter TopCount (Packard). One hundred % was set to the difference between the uptake in the control group and the basal uptake, and the uptake of methyl α-D-gluco-pyranoside at each drug concentration were calculated.

Row | Compound | IC50 (human SGLT1) [nM] | Plasma glucose concentration 0.5 h (diabetic rats) [mg/dL] | Plasma glucose concentration 1 h (diabetic rats) [mg/dL] | Plasma glucose concentration 0 h (diabetic rats) [mg/dL]
1 | 3-(β-D-Galactopyranosyloxy)-4-[(4-{3-[2-hydroxy-1-hydroxy-methyl-1-(methyl)ethylcarbamoyl]propyl}phenyl)methyl]-5-isopropyl-1H-pyrazole [Example 32] | 220 | 223 ± 20 | 278 ± 32 | 125 ± 8
2 | 3-(β-D-Glucopyranosyloxy)-4-({4-[3-(2-hydroxyethyl)-carbamoylpropyl]phenyl}methyl)-5-isopropyl-1H-pyrazole [Example 18] | 181 | – | – | –
3 | CC(C)c1[nH]nc(O[C@@H]2O[C@H](CO)[C@@H](O)[C@H](O)[C@H]2O)c1Cc1ccc(CCCC(=O)NCCCN(CCO)CCO)cc1 [Example 15, 3-(β-D-Glucopyranosyloxy)-5-isopropyl-4-{[4-(3-{3-[bis(2-hydroxyethyl)amino]propylcarbamoyl}propyl)phenyl]methyl}-1H-pyrazole] | 113 | – | – | –
4 | CC(C)c1[nH]nc(O[C@@H]2O[C@H](CO)[C@@H](O)[C@H](O)[C@H]2O)c1Cc1ccc(CCCS(=O)(=O)NC(C)(C)C(N)=O)cc1 [Example 35, 4-[(4-{3-[1-Carbamoyl-1-(methyl)ethylsulfamoyl]propyl}-phenyl)methyl]-3-(β-D-glucopyranosyloxy)-5-isopropyl-1H-pyrazole] | 115 | – | – | –
5 | CC(C)c1[nH]nc(O[C@@H]2O[C@H](CO)[C@H](O)[C@H](O)[C@H]2O)c1Cc1ccc(CCCC(=O)NC(C)(C)C(=O)N2CCN(CCO)CC2)cc1 [Example 48, 3-(β-D-Galactopyranosyloxy)-4-[(4-{3-[1-{[4-(2-hydroxy-ethyl)piperazin-1-yl]carbonyl}-1-(methyl)ethylcarbamoyl]-propyl}phenyl)methyl]-5-isopropyl-1H-pyrazole] | 31 | 139 ± 4 | 132 ± 4 | 112 ± 5
6 | CC(C)c1[nH]nc(O[C@@H]2O[C@H](CO)[C@H](O)[C@H](O)[C@H]2O)c1Cc1ccc(CCCC(=O)NC(C)(C)C(=O)N2CCNCC2)cc1 [Example 57, 3-(β-D-Galactopyranosyloxy)-5-isopropyl-4-{[4-(3-{1-[(piperazin-1-yl)carbonyl]-1-(methyl)ethylcarbamoyl}-propyl)phenyl]methyl}-1H-pyrazole] | 39 | – | – | –

Further lines, with some results ahead:

Row | IC50 (human SGLT1) [nM] | Compound | Plasma glucose concentration 0.5 h (diabetic rats) [mg/dL] | Plasma glucose concentration 1 h (diabetic rats) [mg/dL] | Plasma glucose concentration 0 h (diabetic rats) [mg/dL]
7 | 12 | CC(C)c1[nH]nc(O[C@@H]2O[C@H](CO)[C@@H](O)[C@H](O)[C@H]2O)c1Cc1ccc(CCCC(=O)NC(CO)(CO)CO)cc1 [Example 21, 3-(β-D-Glucopyranosyloxy)-4-[(4-{3-[2-hydroxy-1,1-bis-(hydroxymethyl)ethylcarbamoyl]propyl}phenyl)methyl]-5-isopropyl-1H-pyrazole] | 156 ± 15 | 178 ± 19 | 118 ± 9
8 | 24 | CC(C)c1[nH]nc(O[C@@H]2O[C@H](CO)[C@@H](O)[C@H](O)[C@H]2O)c1Cc1ccc(CCCC(=O)NC(C)(C)C(N)=O)cc1 [Example 24, 4-[(4-{3-[1-Carbamoyl-1-(methyl)ethylcarbamoyl]propyl}-phenyl)methyl]-3-(β-D-glucopyranosyloxy)-5-isopropyl-1H-pyrazole] | – | – | –
9 | 237 | CC(C)c1[nH]nc(O[C@@H]2O[C@H](CO)[C@@H](O)[C@H](O)[C@H]2O)c1Cc1ccc(/C=C/C(=O)NC(C)(CO)CO)cc1 [Example 27, 3-(β-D-Glucopyranosyloxy)-4-[(4-{(1E)-2-[2-hydroxy-1-hydroxymethyl-1-(methyl)ethylcarbamoyl]vinyl}phenyl)-methyl]-5-isopropyl-1H-pyrazole] | – | – | –
10 | 267 | CC(C)c1[nH]nc(O[C@@H]2O[C@H](CO)[C@@H](O)[C@H](O)[C@H]2O)c1Cc1ccc(/C=C/C(=O)NC(CO)(CO)CO)cc1 [Example 28, 3-(β-D-Glucopyranosyloxy)-4-[(4-{(1E)-2-[2-hydroxy-1,1-bis-(hydroxymethyl)ethylcarbamoyl]vinyl}phenyl)methyl]-5-isopropyl-1H-pyrazole] | – | – | –
11 | 431 | CC(C)c1[nH]nc(O[C@@H]2O[C@H](CO)[C@@H](O)[C@H](O)[C@H]2O)c1Cc1ccc(/C=C/C(=O)NC(C)(C)C(N)=O)cc1 [Example 29, 4-[(4-{(1E)-2-[1-Carbamoyl-1-(methyl)ethylcarbamoyl]vinyl}-phenyl)methyl]-3-(β-D-glucopyranosyloxy)-5-isopropyl-1H-pyrazole] | – | – | –
12 | 52 | CC(C)c1[nH]nc(O[C@@H]2O[C@H](CO)[C@@H](O)[C@H](O)[C@H]2O)c1Cc1ccc(CCCC(=O)NC(C)(C)C(=O)NCCO)cc1 [Example 30, 3-(β-D-Glucopyranosyloxy)-4-[(4-{3-[1-(2-hydroxyethyl-carbamoyl)-1-(methyl)ethylcarbamoyl]propyl}phenyl)methyl]-5-isopropyl-1H-pyrazole] | 163 ± 8 | 187 ± 9 | 121 ± 6
13 | 96 | CC(C)c1[nH]nc(O[C@@H]2O[C@H](CO)[C@@H](O)[C@H](O)[C@H]2O)c1Cc1ccc(CCCC(=O)NC(C)(C)C(=O)NCC(N)=O)cc1 [Example 31, 4-[(4-{3-[1-Carbamoylmethylcarbamoyl-1-(methyl)ethyl-carbamoyl]propyl}phenyl)methyl]-3-(β-D-glucopyranosyloxy)-5-isopropyl-1H-pyrazole] | – | – | –
14 | 174 | CC(C)c1[nH]nc(O[C@@H]2O[C@H](CO)[C@H](O)[C@H](O)[C@H]2O)c1Cc1ccc(CCCC(=O)NC(C)(C)C(N)=O)cc1 [Example 33, 4-[(4-{3-[1-Carbamoyl-1-(methyl)ethylcarbamoyl]propyl}-phenyl)methyl]-3-(β-D-galactopyranosyloxy)-5-isopropyl-1H-pyrazole] | 207 ± 8 | 251 ± 21 | 127 ± 11
15 | 245 | CC(C)c1[nH]nc(O[C@@H]2O[C@H](CO)[C@@H](O)[C@H](O)[C@H]2O)c1Cc1ccc(CCCS(=O)(=O)NCCN)cc1 [Example 34, 4-({4-[3-(2-Aminoethylsulfamoyl)propyl]phenyl}methyl)-3-(β-D-glucopyranosyloxy)-5-isopropyl-1H-pyrazole] | – | – | –
